Measured values: the supplement of paper PMC10307832

Columns and labels:
Assay in all cases: relative viability (nuclei count vs DMSO), 5 days (fraction); higher = more cells survive
[1] = compound: CCN1C(=O)C2=CC(=C(N=C2N(C1=O)C3CC3)N)C(=O)N + CS(=O)(=O)CCNCc1ccc(-c2ccc3ncnc(Nc4ccc(OCc5cccc(F)c5)c(Cl)c4)c3c2)o1 [Lapatinib] (partner 2 µM)
Method in brief: (§1)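 After 5 days of treatment, lung cancer cells in 1536-well plates were fixed and stained in a single step (final 0.05% Triton X-100, 1% formaldehyde, 1 ug/ml Hoechst) and their nuclei counted on 4× images. Treatment had been applied by pin tool the day after seeding as one drug alone or as a fixed anchor-drug dose with five library-drug doses (not always all listed) in √10 steps. Relative viability is the nuclei count of treated wells divided by that of vehicle wells, and values are medians of duplicate plates.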

[2] = compound: CCN1C(=O)C2=CC(=C(N=C2N(C1=O)C3CC3)N)C(=O)N + NC(=O)Nc1cc(-c2cccc(F)c2)sc1C(=O)N[C@H]1CCCNC1 [AZD7762] (partner 0.2 µM)
Method in brief: as §1

[3] = compound: CCN1C(=O)C2=CC(=C(N=C2N(C1=O)C3CC3)N)C(=O)N + O=C(CCCCCCC(=O)Nc1ccccc1)NO [Vorinostat] (partner 1 µM)
Method in brief: as §1

[4] = compound: CCN1C(=O)C2=CC(=C(N=C2N(C1=O)C3CC3)N)C(=O)N + CC(=O)Nc1cccc(-n2c(=O)n(C3CC3)c(=O)c3c(Nc4ccc(I)cc4F)n(C)c(=O)c(C)c32)c1 [Trametinib] (partner 0.02 µM)
Method in brief: as §1

[5] = compound: CCN1C(=O)C2=CC(=C(N=C2N(C1=O)C3CC3)N)C(=O)N
Method in brief: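 In 1536-well plates, lung cancer cell lines rested overnight at 37 °C before five library-drug doses (not always all listed), √10 apart, were pinned onto vehicle-anchored plates. Nuclei were counted with MetaXpress from 4× Hoechst images taken after 5 days without medium change. Viability compares treated-well with vehicle-well nuclei as a median over plates, and plates needed control CV below 25% plus at least one doubling to pass.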

Cell Line	relative viability ([1]; first compound 0.253 µM)	relative viability ([1]; first compound 0.8 µM)	relative viability ([1]; first compound 2.53 µM)	relative viability ([1]; first compound 8 µM)	relative viability ([2]; first compound 0.253 µM)	relative viability ([2]; first compound 0.8 µM)	relative viability ([2]; first compound 2.53 µM)	relative viability ([2]; first compound 8 µM)	relative viability ([3]; first compound 0.253 µM)	relative viability ([3]; first compound 0.8 µM)	relative viability ([3]; first compound 2.53 µM)	relative viability ([3]; first compound 8 µM)	relative viability ([4]; first compound 0.253 µM)	relative viability ([4]; first compound 0.8 µM)	relative viability ([4]; first compound 2.53 µM)	relative viability ([4]; first compound 8 µM)	relative viability ([5]; 0.253 µM)	relative viability ([5]; 0.8 µM)	relative viability ([5]; 2.53 µM)	relative viability ([5]; 8 µM)
HCC-78	0.581	0.626	0.937	0.719	0.56	0.592	0.626	0.735	0.451	0.437	0.437	0.462	0.706	0.733	0.812	0.788	0.947	0.939	1.04	0.994
NCI-H2170	0.253	0.257	0.263	0.255	0.889	0.846	0.882	0.867	0.881	0.791	0.869	0.78	0.866	0.817	0.891	1.01	0.983	0.928	1.02	0.925
NCI-H1793	0.635	0.819		0.636	0.409	0.408	0.649	0.501	0.665	0.747	0.797	0.805	0.428	0.387	0.433	0.445	0.808	1.02	0.815	1.12
HCC-366	1.06	0.966	0.988	1.05	0.395	0.312	0.41	0.231	0.363	0.384	0.297	0.277	0.416	0.433	0.348	0.343	0.981	0.968	0.996	1.03
NCI-H1651	0.749	0.78	0.936	0.834	0.463	0.434	0.442	0.399	0.571	0.493	0.55	0.462	0.784	0.835	0.778	0.819	0.929	0.976	0.965	0.948
LC-2-ad	0.841	0.747	0.943	0.903	0.866	0.771	0.853	0.834	0.663	0.754	0.698	0.721	0.918	0.865	0.845	0.871	0.915	0.937	1	0.977
HCC-827	0.183	0.219	0.17	0.206	0.165	0.193	0.25	0.207	0.498	0.709	1	0.819	0.525	0.538	0.537	0.544	1.1	1.02	1.03	1.01
LOU-NH91	0.869	0.732	0.83	0.766	0.786	0.73	0.725	0.749	0.863	0.848	0.948	0.903	0.791	0.76	0.772	0.772	0.838	0.921	0.996	0.944
NCI-H727	0.925	0.69	0.814	0.857	0.61	0.534	0.726	0.577	1.27	1.11	1.26	1.07	0.39	0.436	0.422	0.386	0.98	0.892	0.976	0.828
LU99A	1.04	0.984	0.984	1.09	0.356	0.377	0.304	0.348	0.471	0.493	0.471	0.469	0.504	0.545	0.56	0.549	0.856	0.997	0.904	0.984
NCI-H596	1.07	1.02	1.09	1.06	1.12	0.998	1.26	1.24	0.582	0.626	0.614	0.571	0.673	0.742	0.787	0.907	0.933	0.984	1.06	0.971
HOP-62	0.844	1.29	1.01	1.1	0.727	0.566	0.617	0.899	0.622	0.71	0.58	0.579	0.312	0.376	0.333	0.416	1.01	1.03	1	1.03
NCI-H1734	1.08	1.07	1.03	1.1	0.514	0.543	0.51	0.566	0.744	0.762	0.811	0.784	0.742	0.593	0.609	0.74	0.9	0.903	0.948	0.943
EKVX	0.23	0.25	0.222	0.196	0.824	0.701	0.749	0.698	0.881	0.589	0.716	0.594	0.378	0.359	0.372	0.371	1.01	0.955	0.959	0.913
HARA	0.809	0.688	0.839	0.69	0.661	0.304	0.296	0.315	0.563	0.5	0.57	0.552	0.513	0.914	0.56	0.545	0.975	0.927	0.947	0.918
EMC-BAC-2	0.937	0.849	0.859	0.888	1.18		1.04	1.14	0.992		0.782	0.67	0.871		0.766	0.9	1.39		1.14	1.07

Cell Line	relative viability ([1]; first compound 0.253 µM)	relative viability ([1]; first compound 0.8 µM)	relative viability ([1]; first compound 2.53 µM)	relative viability ([1]; first compound 8 µM)	relative viability ([2]; first compound 0.253 µM)	relative viability ([2]; first compound 0.8 µM)	relative viability ([2]; first compound 2.53 µM)	relative viability ([2]; first compound 8 µM)	relative viability ([3]; first compound 0.253 µM)	relative viability ([3]; first compound 0.8 µM)	relative viability ([3]; first compound 2.53 µM)	relative viability ([3]; first compound 8 µM)	relative viability ([4]; first compound 0.253 µM)	relative viability ([4]; first compound 0.8 µM)	relative viability ([4]; first compound 2.53 µM)	relative viability ([4]; first compound 8 µM)	relative viability ([5]; 0.253 µM)	relative viability ([5]; 0.8 µM)	relative viability ([5]; 2.53 µM)	relative viability ([5]; 8 µM)
PC-3 [JPC-3]	0.486	0.416	0.481	0.476	0.813		0.966	0.748	0.93		1.22	1.08	0.686		0.686	0.736	1.06	1.01	1.06	1.08
NCI-H1755	0.999	1.09	0.779	1.02	0.522	0.496	0.408	0.533	0.743	0.722	0.76	0.719	0.771	0.762	0.746	0.716	0.984	1.02	1	0.979
NCI-H2087	0.811	1.14	1.21	0.872	1.35	1.32	1.36	1.28	0.634	1.23	0.911	0.676	0.228	0.184	0.217	0.193	0.972	1.14	1.05	1.03
CAL-12T	0.528		0.716	0.859	0.619	0.479	0.664	0.567	0.771	0.642	0.659	0.803	0.42	0.354	0.386	0.328	1	0.964	1.02	1.02
NCI-H2085	0.721	0.782	0.743	0.68	0.989	0.915	0.921	1.04	0.767	0.764	0.747	0.782	0.588	0.538	0.52	0.428	1.01	0.99	0.941	0.966
LCLC-97TM1	1.01			1.05	0.242	0.155	0.267	0.175	0.711	0.752	0.634	0.773	0.194	0.217	0.203	0.182	0.936	0.792	0.977	0.879
NCI-H2126	0.787	0.778	0.761	0.749	1.02	0.967	0.941	0.958	0.846	0.803	0.765	0.797	0.574	0.583	0.56	0.554	1.02	0.989	0.972	0.963
201T	1.03	0.949	0.967	0.98	0.609	0.677	0.64	0.615	0.92	0.982	0.945	0.973	0.744	0.702	0.686	0.724	0.993	0.948	1.04	0.964
NCI-H1915	0.952	0.942	0.974	0.922	0.722	0.7	0.712	0.594	0.49	0.546	0.493	0.436	0.297	0.294	0.305	0.337	0.988	1.01	1	0.922
BEN	0.776	0.638	0.827	0.697	0.789	0.568	0.864	0.689	0.608	0.641	0.63	0.625	0.915	0.937	1.11	1.05	0.952	0.885	1.11	1.02
NCI-H2347	0.94	1.01	0.985	0.937	0.769	0.785	0.695	0.817	0.634	0.462	0.623	0.639	0.183	0.299	0.307	0.307	0.98	1.04	1.08	1
H3255	0.246	0.216	0.192	0.258	0.884	0.922	0.919	0.832	0.838	0.688	0.819	0.831	0.587	0.578	0.567	0.636	0.995	0.906	1.01	0.929
NCI-H1975	0.841	0.844	0.868	0.91	0.758	0.622	0.83	0.7	0.733	0.772	0.697	0.757	0.343	0.335	0.335	0.336	1.01	0.917	0.957	0.892
NCI-H650	1.03	0.883	1.07	0.872	1.14	0.781	0.999	1.3	0.565	0.313	0.408	0.421	0.994	0.929	0.905	1.04	0.955	0.916	0.962	0.849
A-427	1.06	0.963	1.05	1.01	0.73	0.791	0.731	0.789	0.923	0.926	0.842	0.852	0.827	0.7	0.7	0.767	1.02	0.991	1.03	1.03
LXF-289	0.867	0.951	0.938	0.89	1.12	1.17	1.08	1.07	0.798	0.744	0.825	0.787	0.636	0.658	0.661	0.665	1.01	1.07	0.972	1.01
